Laboratory results published in patent US6548527B2, “Treatments for immune-mediated ear disorders” (The General Hospital Corporation, priority 2000, dated 2003).

What was measured:
Type in all cases: in vivo, human
patients with IMCVD [1] = test: Initial trials of leflunomide in patients with IMCVD (20 mg orally every day); details: of 3 patients, 5-6 month or 1-year regimen
[2] = system: patients with progressive IMCVD; test: Etanercept treatment of twelve patients with progressive IMCVD (25 mg subcutaneous injection twice a week)
Source text: Study subjects were suspected of having IMCVDs mainly based on (1) the presence of bilateral sensorineural healing loss or typical symptoms of Meniere's disease with a recent progressive decline, (2) a clear response to high dose prednisone therapy, and/or (3) the presence of anti-HSP70 antibodies. Reasons for attempting etanercept therapy in these study patients included: (a) failure of conventional treatments in seven, (b) side effects of conventional treatment in three, (c) the need for corticosteroid sparing agent with a quick onset of action given intolerable corticosteroid side effects and rapidly progressive worsening of hearing in three, and (d) the patient's wish to avoid conventional agents in two given their known side effects of sub-optimal efficacy profile.
Of the 12 patients, six (50%) were women. The mean age was 47 (range, 24 to 71), and the mean duration of disease prior to the etanercept therapy was 13 years (range, 2 to 25 years). All 12 patients had both ears involved, 2 had predominantly one ear involvement with good hearing in the contralateral ear, 4 had significant loss of hearing in both ears, and 6 had lost all functional hearing in one ear and were treated with etanercept for a recent progressive decline of the remaining hearing. […] Patient # 9 had symmetric polyarthralgia, morning stiffness without documented synovitis, negative rheumatoid factor and positive anti-nuclear antibodies. Four of the 10 patients who were tested had antibodies to HSP70. Previous anti-rheumatic treatments included methotrexate in five, cyclophosphamide (CYTOXAN) in two, hydroxycholoquine in one, and chlorambucil in one. All patients received a trial of diuretics and sodium-restricted diet. Two of the patients had hypertension, one had diet-controlled diabetes mellitus, one had hyperlipidemia, and one had hypothyroidism.
Etanercept was started while the patients were on high dose prednisone (except in 2 cases, who were already off prednisone because of intolerable side-effects). The prednisone dose was then tapered off over 2 to 6 weeks (except in 2 cases) depending on disease severity, response to prednisone, and the severity of side effects of prednisone. The mean duration of the etanercept treatment in the 12 patients was 7 months (82 patient-months; range, 5 to 10 months) and mean follow-up from the start date of etanercept therapy was 8 months (range: 5.66 to 12 months). Seven of the twelve patients were still on etanercept at the end of study period (mean duration of 7 months) and the remaining five discontinued the drug. Four patients discontinued the drug at the end of the target period (6 months), and one patient was switched to infliximab (Remicade™), another TNF-receptor blocker for less than desired benefit from etanercept (duration 9 months). A criteria of prednisone response was based on improvements in hearing, vertigo, and equilibrium, as previously published by Sismanis et al. (Otolaryngology—Head and Neck Surgery 116(2): 146-52, 1997).
The main outcome measurement was improvement or stabilization of hearing by air conduction pure tone audiograms and/or by word discrimination scores. A slightly modified version of improvement criteria which was previously used to evaluate the efficacy of glucocorticoids was employed for IMCVDs: >15 dB at one frequency, 10 dB at two or more consecutive frequencies, or 15% increase in word discrimination scores (Sismanis et al., supra; Rauch, Annals of the New York Academy of Sciences 830:203-210, 1997). The audiogram before initiation of etanercept was compared with the most recent audiogram. When present, vertigo, tinnitus, and fullness were assessed using a 3-level response scale: better, no change, and worse. Outcomes were based on measurements at the farthest follow-up from the initiation of etanercept or at the declaration of no improvement in hearing by etanercept therapy, whichever came first. More than a 5-month follow-up was available for all patients (range: 5-12 months) […]

patients with IMCVD [3] = test: Two other separate trials of etanercept in additional IMCVD patients
patients with IMCVD [4] = test: Infliximab trial in patients with IMCVD (3 mg/kg intravenous infusion every two months); details: of 3 patients; 3 mg/kg i.v. infusion every two months, at least 6 months
Method: In addition to etanercept, another TNF antagonist, infliximab, was also tested for efficacy. In this trial, 3 patients with IMCVD were treated with 3 mg/kg body weight of Remicade™ by intravenous infusion every two months. Treatment was continued for at least 6 months, and the patients were monitored.

[5] = single patient #1 on etanercept

For `Cc1oncc1C(=O)Nc1ccc(C(F)(F)F)cc1` [leflunomide, N-(4′-trifluoromethylphenyl)-5-methylisoxazole-4-carboxamide], the “patients exhibiting positive results” value (patients with IMCVD [1]) was 2 patients, the “overall hearing after leflunomide was later added, patient #8” value ([2]; single patient #8, leflunomide added to etanercept) was “did not make any difference” and the “hearing outcome after addition of leflunomide to etanercept, patient #11” value ([2]; single patient #11, leflunomide added to etanercept after deterioration) was “rescued and stabilized”.

For etanercept, the “patients showing positive outcomes” value (patients with IMCVD [3]; in sum, out of 18 patients with IMCVD treated with etanercept (all trials)) was 16 patients, the “outcome of IMCVD symptoms in additional patients” value (patients with IMCVD [3]; six additional patients in two other separate trials) was “all showed improvement or stabilization of IMCVD symptoms” and the “patients who had aural fullness with resolution or significant improvement of symptoms” value ([2]; 8 out of 9 patients who had aural fullness) was 89%. The “patients on prednisone able to taper off prednisone without affecting their hearing” value ([2]; 10 patients on variable doses of prednisone to maintain hearing, after starting etanercept) was “Eight of the 10”, the “patients with improvement or stabilization of hearing and tinnitus” value ([2]; 11 out of 12 patients, 25 mg s.c. twice a week, follow-up 5-12 months) was 92% and the adverse reactions ([2]; 12 patients, 25 mg s.c. twice a week) was “no adverse reactions except for mild transient injection-site reactions in a few patients”. The “patients who had vertigo with resolution or significant improvement of symptoms” value ([2]; Seven out of 8 patients who had vertigo) was 88%, the “side effects during the follow-up period” value ([2]; follow-up period) was “no appreciable side effects” and the “persistence of benefit until the last visit, time after starting etanercept” value ([2]; human, in vivo) was 5 to 12 months. The “hearing fluctuation, tinnitus, aural fullness and vertigo, patient #1” value [2, 5] was “the fluctuation stabilized and their tinnitus, aura fullness, and vertigo resolved”, the “overall hearing, patient #1” value [2, 5] was “did not have any significant improvement” and the “tinnitus and vertigo after switching to etanercept, patient #8” value ([2]; single patient #8) was “improvement”. The “hearing outcome, patient #8 switched to etanercept” value ([2]; single patient #8, previously losing hearing on methotrexate and chlorambucil) was “stabilized their hearing after being switched to etanercept but at a lower level than their baseline”, the “hearing outcome, patient #11 on etanercept” value ([2]; single patient #11) was “initial dramatic improvement after starting etanercept but deteriorated after 5 months” and the “patients who experienced improvement in tinnitus, aural fullness, and vertigo” value ([2]; summary of 12 patients) was “approximately 90%”. The “patients who stabilized their rapidly progressing hearing loss” value ([2]; summary of 12 patients) was 33% and the “patients with remarkable improvement of hearing” value ([2]; summary of 12 patients) was 58%.

“infliximab: chimeric monoclonal antibody that binds to TNF-α, marketed as Remicade” was tested, and the “patients exhibiting positive results” value (patients with IMCVD [4]) was 3 patients and the “hearing after switch from etanercept to infliximab, patient #11” value ([2]; single patient #11, switched after 9 months on etanercept) was “remained unchanged”.
